Laboratory results taken from PubChem BioAssay (NCI).
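Briefly, cells in 96-well plates were exposed to five compound concentrations for 48 h, and endpoints were estimated by linear interpolation. TGI is the concentration that stops growth completely.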

How the values were obtained:
Assay in all cases: NCI-60 cell line screen, 48 h
[1] = tested on: OVCAR-3 ovarian
[2] = tested on: LOX IMVI melanoma
[3] = tested on: MALME-3M melanoma
[4] = tested on: HCT-15 colon
[5] = tested on: MOLT-4 leukemia
[6] = tested on: SN12C renal
[7] = tested on: SK-OV-3 ovarian
[8] = tested on: SR leukemia
[9] = tested on: NCI-H460 lung

SMILES | TGI [1] | TGI [2] | TGI [3] | TGI [4] | TGI [5] | TGI [6] | TGI [7] | TGI [8] | TGI [9]
CCOc1cc(C2CC(c3ccc(NS(=O)(=O)c4cc([N+](=O)[O-])ccc4C)cc3)=NN2C(=O)c2ccccc2)ccc1O (stereo unspecified) | 36.3 µM | > 100 µM | 61.4 µM | > 100 µM | > 100 µM | 58.9 µM | 54.5 µM | > 100 µM | –
CN(C)c1ccc(C=C2N=C(c3ccccc3)N(c3cc(C(=O)c4ccccc4)ccc3N3C(=O)/C(=C/c4ccc(N(C)C)cc4)N=C3c3ccccc3)C2=O)cc1 | 5.57 µM | > 100 µM | – | > 100 µM | 14.9 µM | > 100 µM | > 100 µM | > 100 µM | > 100 µM
CN(C)C(=S)S | 28.3 µM | > 100 µM | > 90.2 µM | > 100 µM | > 100 µM | > 100 µM | > 100 µM | – | > 100 µM
Cc1csc(-c2cn(C)c3c2C(=O)C(N)=CC3=O)n1 | > 67.3 µM | > 100 µM | – | > 100 µM | > 27.9 µM | > 100 µM | > 100 µM | 19.5 µM | 15.9 µM
COc1cc(C2SCC(=O)N2c2ccc(NC(=O)c3ccc(N4C(=O)CSC4c4cc(OC)c(OC)c(OC)c4)cc3)cc2)cc(OC)c1OC (stereo unspecified) | > 100 µM | > 100 µM | > 100 µM | > 100 µM | > 100 µM | > 100 µM | > 100 µM | – | > 100 µM
NNC(=O)c1ccc[n+](CCc2ccccc2)c1 | > 100 µM | > 100 µM | > 100 µM | > 100 µM | > 100 µM | > 100 µM | > 100 µM | – | > 100 µM
CC1(C)N=C(C(N)=O)c2ncn(CCCO)c2N1 | > 100 µM | > 100 µM | > 100 µM | > 100 µM | – | > 100 µM | > 100 µM | > 100 µM | > 100 µM
c1ccc2c(c1)NC(C1OC3CCCN3C1C1Nc3ccccc3S1)S2 (stereo unspecified) | > 100 µM | – | > 100 µM | > 100 µM | > 100 µM | > 100 µM | > 100 µM | > 100 µM | > 100 µM
CC(=O)N/N=C1\NC(=O)C[C@H]2[C@@H]3CC=C4C[C@@H](OC(C)=O)CC[C@]4(C)[C@H]3CC[C@]12C | > 100 µM | > 100 µM | > 100 µM | > 100 µM | > 100 µM | > 100 µM | 53.7 µM | – | –
O=C1c2cc3c(cc2CC1Br)CCC3 (stereo unspecified) | 3.86 µM | 2 µM | 2.82 µM | 4.82 µM | 4.56 µM | 3.22 µM | 15.9 µM | – | 56.2 µM
O=[N+]([O-])/C(C(Cl)=C(Cl)Cl)=C(\Nc1cccc2cccnc12)SCc1ccccc1 | 32.8 µM | – | 28.9 µM | 43.4 µM | 14.4 µM | 60.7 µM | 43.4 µM | – | 55.3 µM
CC(C)(C)NC(=O)/C(=C\Sc1ccccc1)c1ccc2c(c1)OCO2 | > 100 µM | 48.9 µM | – | > 100 µM | > 100 µM | 84.2 µM | > 100 µM | 83.8 µM | –
CC(C)COP(=O)(OCC(C)C)C(NS(=O)(=O)c1ccccc1)(C(F)(F)F)C(F)(F)F | 23.8 µM | 13.6 µM | 32.4 µM | 23.8 µM | 14.9 µM | 18.8 µM | 29.9 µM | 38.1 µM | –
C/C=C/C=C/c1nc(C#N)c(N)o1 | > 100 µM | > 100 µM | > 100 µM | > 100 µM | > 100 µM | > 100 µM | > 100 µM | > 100 µM | –
O=C(/C=C/c1ccsc1)c1ccsc1 | – | 35.2 µM | 75.1 µM | 41.5 µM | 44.7 µM | 40.4 µM | > 100 µM | 46.5 µM | 69.6 µM
C=CC[C@]12C[C@@H](C(=O)OC)N(C(=O)OC)[C@H]1N(S(=O)(=O)c1ccccc1)c1ccccc12 | > 100 µM | – | > 100 µM | > 100 µM | > 100 µM | > 100 µM | > 100 µM | > 100 µM | > 100 µM
Cc1ccccc1C(O)(c1nccn1C)c1nccn1C | > 100 µM | – | > 100 µM | > 100 µM | > 100 µM | > 100 µM | > 100 µM | > 100 µM | > 100 µM
N#C/C(=C\c1cc(Br)c(O)c(Br)c1)c1cccnc1 | 44 µM | – | 41.6 µM | 44 µM | > 100 µM | > 100 µM | > 100 µM | 76.5 µM | > 100 µM
